{
  "source": "patent US6605630B1",
  "about": "“Antibiotic oxazolidinone derivatives” (Syngenta Limited, priority 1997, dated 2003)",
  "key": {"Enterococcus faecalis": {"tested_on": "Enterococcus faecalis", "details": "agar with 5% defibrinated horse blood, 10^4 CFU/spot, 37° C., 5% carbon dioxide, 48 hours", "protocol": "(§1) The activity is described in terms of the minimum inhibitory concentration (MIC) determined by the agar-dilution technique with an inoculum size of 10^4 CFU/spot.\n(§2) Streptococci and enterococci were tested on agar supplemented with 5% defibrinated horse blood, an inoculum of 10^4 CFU/spot and an incubation temperature of 37° C. in an atmosphere of 5% carbon dioxide for 48 hours-blood is required for the growth of some of the test organisms."}, "[1]": {"tested_on": "Streptococcus pyogenes C203", "details": "agar with 5% defibrinated horse blood, 10^4 CFU/spot, 37° C., 5% carbon dioxide, 48 hours", "protocol": "as §1, §2"}, "Bacillus subtilis": {"tested_on": "Bacillus subtilis", "description": "as §1"}, "[2]": {"tested_on": "Staphylococcus aureus Novb. Res.", "protocol": "as §1\n(§3) Staphylococci were tested on agar, using an inoculum of 10^4 CFU/spot and an incubation temperature of 37° C. for 24 hours-standard test conditions for the expression of methicillin resistance."}, "[3]": {"tested_on": "Staphylococcus aureus MRQR", "protocol": "as §1, §3"}, "[4]": {"tested_on": "Coagulase Negative Staphylococci MS", "protocol": "as §1, §3"}, "[5]": {"tested_on": "Coagulase Negative Staphylococci MR", "protocol": "as §1, §3"}, "[6]": {"tested_on": "Staphylococcus aureus Oxford", "protocol": "as §1, §3"}},
  "data": [
    {"substance": "N-((5S)-3-(4-((7aS)[3H,5H]-3-oxo-1,7a-Dihydropyrrolol[1,2c]oxazol-6-yl)phenyl)-2-oxooxazolidin-5-ylmethyl)acetamide [Example 44]", "values": [
      {"measurement": "MIC", "setting": "Enterococcus faecalis", "value": 0.50, "unit": "µg/mL"},
      {"measurement": "MIC", "setting": "[1]", "value": 0.13, "unit": "µg/mL"},
      {"measurement": "MIC", "setting": "Bacillus subtilis", "value": 0.50, "unit": "µg/mL"},
      {"measurement": "MIC", "setting": "[2]", "value": 0.50, "unit": "µg/mL"},
      {"measurement": "MIC", "setting": "[3]", "value": 2.00, "unit": "µg/mL"},
      {"measurement": "MIC", "setting": "[4]", "value": 0.13, "unit": "µg/mL"},
      {"measurement": "MIC", "setting": "[5]", "value": 0.50, "unit": "µg/mL"},
      {"measurement": "MIC", "setting": "[6]", "value": 0.25, "unit": "µg/mL"}
    ]}
  ]
}
